According to ChEMBL document CHEMBL3616376, “Anti-proliferative activity of Monensin and its tertiary amide derivatives” (Bioorg Med Chem Lett, 2015):

Tests used:
[1] = system: LoVo; experiment: Antiproliferative activity against human LoVo cells; assay type: functional, cell-based
[2] = Antiproliferative activity against human LoVo/DX cells; assay type: functional, cell-based
[3] = system: MV4-11; experiment: Antiproliferative activity against human MV4-11 cells; assay type: functional, cell-based
[4] = system: BALB/3T3; experiment: Cytotoxicity against mouse BALB/3T3 cells; assay type: cell-based
[5] = Selectivity index, ratio of IC50 for mouse BALB/3T3 cells to IC50 for human LoVo cells; assay type: functional
[6] = Selectivity index, ratio of IC50 for mouse BALB/3T3 cells to IC50 for human LoVo/Dx cells; assay type: functional
[7] = system: LoVo; experiment: Resistance index, ratio of IC50 for human LoVo/DX cells to IC50 for human LoVo cells; assay type: functional
[8] = Selectivity index, ratio of IC50 for mouse BALB/3T3 cells to IC50 for human MV4-11 cells; assay type: functional

Compound: CCN(CC)C(=O)[C@@H](C)[C@H](OC)[C@H](C)[C@H]1O[C@@]2(CC[C@@](C)([C@H]3CC[C@@](CC)([C@@H]4O[C@@H]([C@H]5O[C@@](O)(CO)[C@H](C)C[C@@H]5C)C[C@@H]4C)O3)O2)C[C@H](O)[C@H]1C
- IC50 [1]: 10.7 µM
- IC50 [2]: 4.63 µM
- IC50 [3]: 5.44 µM
- IC50 [4]: 28.1 µM
- Ratio IC50 [5]: 2.63
- Ratio IC50 [6]: 6.07
- Ratio IC50 [7]: 0.43
- Ratio IC50 [8]: 5.17

Compound: CCCN(CCC)C(=O)[C@@H](C)[C@H](OC)[C@H](C)[C@H]1O[C@@]2(CC[C@@](C)([C@H]3CC[C@@](CC)([C@@H]4O[C@@H]([C@H]5O[C@@](O)(CO)[C@H](C)C[C@@H]5C)C[C@@H]4C)O3)O2)C[C@H](O)[C@H]1C
- IC50 [1]: 4.35 µM
- IC50 [2]: 6.09 µM
- IC50 [3]: 5.96 µM
- IC50 [4]: 7.73 µM
- Ratio IC50 [5]: 1.78
- Ratio IC50 [6]: 1.27
- Ratio IC50 [7]: 1.4
- Ratio IC50 [8]: 1.3

Compound: CC[C@@]1([C@@H]2O[C@@H]([C@H]3O[C@@](O)(CO)[C@H](C)C[C@@H]3C)C[C@@H]2C)CC[C@H]([C@]2(C)CC[C@]3(C[C@H](O)[C@@H](C)[C@@H]([C@@H](C)[C@@H](OC)[C@H](C)C(=O)N(CCOC)CCOC)O3)O2)O1
- IC50 [1]: 36.6 µM
- IC50 [2]: 10.1 µM
- IC50 [3]: 27.5 µM
- IC50 [4]: 42 µM
- Ratio IC50 [5]: 1.15
- Ratio IC50 [6]: 4.16
- Ratio IC50 [7]: 0.28
- Ratio IC50 [8]: 1.53

Compound: CC[C@@]1([C@@H]2O[C@@H]([C@H]3O[C@@](O)(CO)[C@H](C)C[C@@H]3C)C[C@@H]2C)CC[C@H]([C@]2(C)CC[C@]3(C[C@H](O)[C@@H](C)[C@@H]([C@@H](C)[C@@H](OC)[C@H](C)C(=O)N4CCNCC4)O3)O2)O1
- IC50 [1]: 8.65 µM
- IC50 [2]: 20.7 µM
- IC50 [3]: 3.24 µM
- IC50 [4]: 33 µM
- Ratio IC50 [5]: 3.82
- Ratio IC50 [6]: 1.6
- Ratio IC50 [7]: 2.39
- Ratio IC50 [8]: 10.19

Compound: CC[C@@]1([C@@H]2O[C@@H]([C@H]3O[C@@](O)(CO)[C@H](C)C[C@@H]3C)C[C@@H]2C)CC[C@H]([C@]2(C)CC[C@]3(C[C@H](O)[C@@H](C)[C@@H]([C@@H](C)[C@@H](OC)[C@H](C)C(=O)N4CCOCC4)O3)O2)O1
- IC50 [1]: 19.8 µM
- IC50 [2]: 4.86 µM
- IC50 [3]: 2.51 µM
- IC50 [4]: 49.6 µM
- Ratio IC50 [5]: 2.5
- Ratio IC50 [6]: 10.21
- Ratio IC50 [7]: 0.25
- Ratio IC50 [8]: 19.78

Compound: CC[C@@]1([C@@H]2O[C@@H]([C@H]3O[C@@](O)(CO)[C@H](C)C[C@@H]3C)C[C@@H]2C)CC[C@H]([C@]2(C)CC[C@]3(C[C@H](O)[C@@H](C)[C@@H]([C@@H](C)[C@@H](OC)[C@H](C)C(=O)N(Cc4ccccc4)Cc4ccccc4)O3)O2)O1
- IC50 [1]: 3.71 µM
- IC50 [2]: 3.78 µM
- IC50 [3]: 3.28 µM
- IC50 [4]: 13.1 µM
- Ratio IC50 [5]: 3.53
- Ratio IC50 [6]: 3.46
- Ratio IC50 [7]: 1.02
- Ratio IC50 [8]: 3.99

Compound: COc1cccc2c1C(=O)c1c(O)c3c(c(O)c1C2=O)C[C@@](O)(C(=O)CO)C[C@@H]3O[C@H]1C[C@H](N)[C@H](O)[C@H](C)O1 [DOXORUBICIN]
- IC50 [1]: 0.28 µM
- IC50 [2]: 6.73 µM
- IC50 [4]: 0.53 µM
- Ratio IC50 [5]: 1.89
- Ratio IC50 [6]: 0.08
- Ratio IC50 [7]: 23.62

Compound: CC[C@@]1([C@@H]2O[C@@H]([C@H]3O[C@@](O)(CO)[C@H](C)C[C@@H]3C)C[C@@H]2C)CC[C@H]([C@]2(C)CC[C@]3(C[C@H](O)[C@@H](C)[C@@H]([C@@H](C)[C@@H](OC)[C@H](C)C(=O)O)O3)O2)O1 [MONENSIN]
- IC50 [1]: 1.09 µM
- IC50 [2]: 0.61 µM
- IC50 [3]: 0.09 µM
- IC50 [4]: 20.9 µM
- Ratio IC50 [5]: 19.17
- Ratio IC50 [6]: 34.25
- Ratio IC50 [7]: 0.56
- Ratio IC50 [8]: 232.11
